Results on 3 compounds are retold here after ChEMBL document CHEMBL5143701, “Evaluation of potential anticonvulsant fluorinated N-benzamide enaminones as T-type Ca2+ channel blockers” (Bioorg Med Chem, 2022).

pIC50: −log10 of the molar value. The source made the active and inactive calls. The rule behind the calls is not given here.

Common to all, as to assay type: cell-based
The target of test [1] is Voltage-dependent T-type calcium channel subunit alpha-1I (Homo sapiens) (UniProt Q9P0X4). Briefly: Inhibition of Cav3.3 (unknown origin) stably transfected in HEK293 cells assessed as slope factor at 10 uM incubated for 5 mins by whole cell voltage-clamp assay (reference value: 5.3 +/- 0.6mV).
Sequence of Voltage-dependent T-type calcium channel subunit alpha-1I (Homo sapiens) (Q9P0X4 whole entry): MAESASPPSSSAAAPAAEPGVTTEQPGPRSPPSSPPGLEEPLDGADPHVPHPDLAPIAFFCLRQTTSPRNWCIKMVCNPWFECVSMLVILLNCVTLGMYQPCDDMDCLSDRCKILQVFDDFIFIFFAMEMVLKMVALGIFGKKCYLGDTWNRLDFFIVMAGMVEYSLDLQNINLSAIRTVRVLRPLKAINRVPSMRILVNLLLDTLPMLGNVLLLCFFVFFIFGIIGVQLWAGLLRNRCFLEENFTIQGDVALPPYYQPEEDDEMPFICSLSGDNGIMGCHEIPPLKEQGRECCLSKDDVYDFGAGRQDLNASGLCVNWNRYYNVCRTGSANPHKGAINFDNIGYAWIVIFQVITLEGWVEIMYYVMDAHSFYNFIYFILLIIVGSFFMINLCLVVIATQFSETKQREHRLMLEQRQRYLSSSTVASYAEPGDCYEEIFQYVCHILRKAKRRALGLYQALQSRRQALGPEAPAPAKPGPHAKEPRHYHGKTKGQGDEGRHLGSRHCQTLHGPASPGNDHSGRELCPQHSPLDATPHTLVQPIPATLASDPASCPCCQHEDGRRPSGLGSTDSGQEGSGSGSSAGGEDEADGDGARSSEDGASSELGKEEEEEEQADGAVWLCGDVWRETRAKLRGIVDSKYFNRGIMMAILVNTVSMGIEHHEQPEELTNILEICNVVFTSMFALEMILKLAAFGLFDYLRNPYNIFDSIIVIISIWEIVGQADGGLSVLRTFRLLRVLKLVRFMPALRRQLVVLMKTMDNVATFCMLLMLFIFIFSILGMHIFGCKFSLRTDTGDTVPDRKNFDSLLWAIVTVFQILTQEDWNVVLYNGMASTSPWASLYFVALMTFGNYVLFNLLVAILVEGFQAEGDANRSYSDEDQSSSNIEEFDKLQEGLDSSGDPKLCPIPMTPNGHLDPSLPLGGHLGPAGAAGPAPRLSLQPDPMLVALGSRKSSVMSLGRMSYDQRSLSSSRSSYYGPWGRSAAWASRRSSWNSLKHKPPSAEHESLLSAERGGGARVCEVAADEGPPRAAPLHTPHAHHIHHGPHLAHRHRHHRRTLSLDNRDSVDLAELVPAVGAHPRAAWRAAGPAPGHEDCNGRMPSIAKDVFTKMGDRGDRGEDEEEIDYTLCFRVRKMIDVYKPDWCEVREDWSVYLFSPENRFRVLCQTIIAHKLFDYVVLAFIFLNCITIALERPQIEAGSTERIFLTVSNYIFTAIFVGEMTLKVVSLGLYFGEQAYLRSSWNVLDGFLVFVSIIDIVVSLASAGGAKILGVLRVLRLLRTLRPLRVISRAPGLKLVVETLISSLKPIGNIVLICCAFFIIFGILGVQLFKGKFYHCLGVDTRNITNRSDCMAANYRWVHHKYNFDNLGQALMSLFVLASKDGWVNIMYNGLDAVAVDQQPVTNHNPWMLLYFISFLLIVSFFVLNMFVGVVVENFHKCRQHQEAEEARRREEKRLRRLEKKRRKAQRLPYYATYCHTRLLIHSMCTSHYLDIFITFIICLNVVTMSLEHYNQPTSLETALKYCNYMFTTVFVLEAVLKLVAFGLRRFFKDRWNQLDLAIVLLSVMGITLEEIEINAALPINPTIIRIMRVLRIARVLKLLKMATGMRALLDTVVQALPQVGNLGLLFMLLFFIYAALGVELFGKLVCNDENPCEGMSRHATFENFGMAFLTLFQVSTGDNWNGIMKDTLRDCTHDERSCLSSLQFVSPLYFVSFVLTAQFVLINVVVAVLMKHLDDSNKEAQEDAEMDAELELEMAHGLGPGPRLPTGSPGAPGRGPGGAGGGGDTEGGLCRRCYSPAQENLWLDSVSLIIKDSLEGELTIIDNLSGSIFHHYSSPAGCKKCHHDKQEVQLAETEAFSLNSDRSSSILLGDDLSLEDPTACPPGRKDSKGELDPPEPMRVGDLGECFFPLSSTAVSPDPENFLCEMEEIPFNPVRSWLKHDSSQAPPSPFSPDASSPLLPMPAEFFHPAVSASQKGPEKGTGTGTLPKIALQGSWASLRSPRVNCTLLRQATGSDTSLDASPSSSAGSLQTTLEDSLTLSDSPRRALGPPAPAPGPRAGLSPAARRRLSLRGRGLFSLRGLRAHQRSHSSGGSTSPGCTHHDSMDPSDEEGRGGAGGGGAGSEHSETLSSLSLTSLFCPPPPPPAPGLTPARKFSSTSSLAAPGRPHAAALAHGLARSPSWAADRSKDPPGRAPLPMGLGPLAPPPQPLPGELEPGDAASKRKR
Another test relates to HEK293. Briefly: Inhibition of Cav3.2 (unknown origin) stably transfected in HEK293 cells assessed as reduction in volatage induced Ca2+ current density at 10 uM incubated for 5 mins by whole cell voltage-clamp assay. To be noted: Homo sapiens.
The target of test [2] is Voltage-dependent T-type calcium channel subunit alpha-1H (Homo sapiens) (UniProt O95180). Briefly: Inhibition of Cav3.2 (unknown origin) stably transfected in HEK293 cells assessed as increase in recovery time at 10 uM incubated for 5 mins by whole cell voltage-clamp assay (reference value: 514.5 +/- 37.8ms).
Sequence of Voltage-dependent T-type calcium channel subunit alpha-1H (Homo sapiens) (O95180 whole entry): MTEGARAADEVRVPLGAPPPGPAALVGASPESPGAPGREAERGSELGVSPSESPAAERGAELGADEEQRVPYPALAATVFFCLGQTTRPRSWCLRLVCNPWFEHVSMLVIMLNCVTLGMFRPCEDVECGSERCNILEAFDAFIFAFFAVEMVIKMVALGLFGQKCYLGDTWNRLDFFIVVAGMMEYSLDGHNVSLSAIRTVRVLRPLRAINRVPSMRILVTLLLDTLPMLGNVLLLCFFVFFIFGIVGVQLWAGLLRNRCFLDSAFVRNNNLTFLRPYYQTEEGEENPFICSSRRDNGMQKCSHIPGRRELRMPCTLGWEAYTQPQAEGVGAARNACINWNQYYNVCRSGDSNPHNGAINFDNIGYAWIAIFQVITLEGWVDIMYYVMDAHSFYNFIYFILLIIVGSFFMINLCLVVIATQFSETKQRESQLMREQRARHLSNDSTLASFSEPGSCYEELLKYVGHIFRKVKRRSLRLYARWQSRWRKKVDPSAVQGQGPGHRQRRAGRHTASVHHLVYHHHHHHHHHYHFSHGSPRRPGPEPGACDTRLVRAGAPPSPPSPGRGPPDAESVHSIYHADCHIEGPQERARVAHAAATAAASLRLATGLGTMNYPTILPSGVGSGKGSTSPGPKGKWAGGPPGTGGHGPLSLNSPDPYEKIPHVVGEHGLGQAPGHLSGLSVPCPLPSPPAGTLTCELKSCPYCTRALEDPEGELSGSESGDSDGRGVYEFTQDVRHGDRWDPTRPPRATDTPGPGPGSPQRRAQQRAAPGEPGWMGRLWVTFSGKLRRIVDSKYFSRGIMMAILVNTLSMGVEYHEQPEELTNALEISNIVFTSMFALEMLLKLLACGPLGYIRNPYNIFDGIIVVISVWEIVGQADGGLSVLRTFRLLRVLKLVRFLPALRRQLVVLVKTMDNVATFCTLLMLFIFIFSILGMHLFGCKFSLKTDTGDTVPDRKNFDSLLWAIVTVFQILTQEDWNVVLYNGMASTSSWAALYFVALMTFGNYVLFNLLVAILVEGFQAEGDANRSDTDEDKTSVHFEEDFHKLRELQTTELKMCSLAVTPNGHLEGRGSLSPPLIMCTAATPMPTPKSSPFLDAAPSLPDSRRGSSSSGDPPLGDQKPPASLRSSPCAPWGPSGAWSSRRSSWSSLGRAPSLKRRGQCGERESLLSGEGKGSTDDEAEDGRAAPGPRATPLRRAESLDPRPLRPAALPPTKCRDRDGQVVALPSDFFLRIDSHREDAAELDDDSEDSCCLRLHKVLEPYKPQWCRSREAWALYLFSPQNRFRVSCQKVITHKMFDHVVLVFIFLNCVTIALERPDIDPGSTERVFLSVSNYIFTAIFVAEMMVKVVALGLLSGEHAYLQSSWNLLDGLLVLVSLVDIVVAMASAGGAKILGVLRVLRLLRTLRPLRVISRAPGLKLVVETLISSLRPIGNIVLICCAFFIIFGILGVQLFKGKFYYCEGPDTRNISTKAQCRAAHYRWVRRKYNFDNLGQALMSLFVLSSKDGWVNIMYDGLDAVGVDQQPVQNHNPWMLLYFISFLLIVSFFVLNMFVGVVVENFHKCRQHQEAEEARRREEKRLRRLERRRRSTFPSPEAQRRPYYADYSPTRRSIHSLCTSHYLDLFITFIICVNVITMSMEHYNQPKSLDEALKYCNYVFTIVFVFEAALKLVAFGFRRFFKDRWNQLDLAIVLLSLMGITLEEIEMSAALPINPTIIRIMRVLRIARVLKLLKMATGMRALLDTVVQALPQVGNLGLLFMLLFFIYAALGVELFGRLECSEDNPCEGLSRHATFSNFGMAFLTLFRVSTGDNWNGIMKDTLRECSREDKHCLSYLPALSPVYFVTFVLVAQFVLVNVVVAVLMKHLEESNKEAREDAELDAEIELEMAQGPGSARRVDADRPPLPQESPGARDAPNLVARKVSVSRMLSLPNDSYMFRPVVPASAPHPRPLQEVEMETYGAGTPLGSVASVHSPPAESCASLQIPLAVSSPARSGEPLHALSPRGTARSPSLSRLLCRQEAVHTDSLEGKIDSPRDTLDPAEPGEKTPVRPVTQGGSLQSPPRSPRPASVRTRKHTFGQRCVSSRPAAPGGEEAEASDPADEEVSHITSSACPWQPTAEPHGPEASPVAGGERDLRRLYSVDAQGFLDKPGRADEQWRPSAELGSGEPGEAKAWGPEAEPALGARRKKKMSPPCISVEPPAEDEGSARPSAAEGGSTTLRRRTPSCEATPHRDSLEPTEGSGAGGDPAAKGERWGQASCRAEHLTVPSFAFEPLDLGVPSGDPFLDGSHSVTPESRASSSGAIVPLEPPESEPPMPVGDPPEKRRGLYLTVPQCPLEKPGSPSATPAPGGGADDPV
The target is the same in test [3]. Kind of test: Inhibition of Cav3.2 (unknown origin) stably transfected in HEK293 cells assessed as volatage induced T-type Ca2+ current at 1 to 50 uM incubated for 5 mins by whole cell voltage-clamp assay. The note with it: dose 1-50 µM.
For test [4] the target is unchanged. Briefly: Inhibition of Cav3.2 (unknown origin) stably transfected in HEK293 cells assessed as V1/2 at 10 uM incubated for 5 mins by whole cell voltage-clamp assay (reference value: -64.8 +/- 1.3mV).
For test [5] the target is unchanged. Kind of test: Inhibition of Cav3.2 (unknown origin) stably transfected in HEK293 cells assessed as activation time constant transient current at 10 uM incubated for 5 mins by whole cell voltage-clamp assay.
The target is the same in test [6]. Briefly: Inhibition of Cav3.2 (unknown origin) stably transfected in HEK293 cells assessed as reduction in volatage induced peak current at 10 uM incubated for 5 mins by whole cell voltage-clamp assay.
In test [7] the target is Voltage-dependent T-type calcium channel subunit alpha-1I (Homo sapiens) (UniProt Q9P0X4). Kind of test: Inhibition of Cav3.3 (unknown origin) stably transfected in HEK293 cells assessed as activation time constant transient current at 10 uM incubated for 5 mins by whole cell voltage-clamp assay.
The target in test [8] is Voltage-dependent T-type calcium channel subunit alpha-1H (Homo sapiens) (UniProt O95180). Kind of test: Inhibition of Cav3.2 (unknown origin) stably transfected in HEK293 cells assessed as slope factor at 10 uM incubated for 5 mins by whole cell voltage-clamp assay (reference value: 5.2 +/- 0.2No_unit).
The nature of test [9]: Inhibition of Voltage-dependent T-type calcium channel in mouse ND7/23 cells assessed as reduction in volatage induced T-type Ca2+ current density incubated for 5 mins by whole cell voltage-clamp assay. To be noted: ND7/23, 5 min.
Test [10] deals with Voltage-dependent T-type calcium channel subunit alpha-1I (Homo sapiens) (UniProt Q9P0X4). Briefly: Inhibition of Cav3.3 (unknown origin) stably transfected in HEK293 cells assessed as V1/2 at 10 uM incubated for 5 mins by whole cell voltage-clamp assay (reference value: -65.6 +/- 3.1mV).
Test [11] relates to ND7/23. Briefly: Inhibition of Voltage-dependent T-type calcium channel in mouse ND7/23 cells assessed as reduction in volatage induced T-type Ca2+ current density at 50 uM incubated for 5 mins followed by compound washout by whole cell voltage-clamp assay.
Test [12] addresses Voltage-dependent T-type calcium channel subunit alpha-1I (Homo sapiens) (UniProt Q9P0X4). Briefly: Inhibition of Cav3.3 (unknown origin) stably transfected in HEK293 cells assessed as reduction inactivation time constant transient current at 10 uM incubated for 5 mins by whole cell voltage-clamp assay.
Test [13] deals with ND7/23. Briefly: Inhibition of Voltage-dependent T-type calcium channel in mouse ND7/23 cells assessed as reduction in volatage induced T-type Ca2+ current density at 50 uM incubated for 5 mins by whole cell voltage-clamp assay.

Consider `CC1CC(=O)C=C(NC(=O)c2cc(C(F)(F)F)cc(C(F)(F)F)c2)C1` (stereo not given), for which the Activity was 5.3 in test [1] and 6 in test [8]. Also, the inhibition result (in the test on HEK293; in [3]; in test [5]; in [6]; in test [7]; in the test on ND7/23 [11]) was “Active” each time. Moreover, the inhibition entry in [12] is “Active”. In addition, the TIME in [2] stood at 0.000267 h. The figures for the V1/2 in test [4] and in test [10] were -70.2 mV and -58.5 mV, respectively. In test [9], the pIC50 was 4.72.

For the compound `CC1CC(=O)C=C(NC(=O)c2ccccc2C(F)(F)F)C1` (stereo not given), the inhibition result in the test with ND7/23 [13] was “Active”.

As to `CC1CC(=O)C=C(NC(=O)c2cccc(C(F)(F)F)c2)C1` (stereo not given), in the test with ND7/23 [13], the inhibition entry was “Active”.

Usually pIC50 stands for −log10 of the IC50, conventionally taken in molar units.
